How the values were obtained:
s.c. WSU-DLCL2 tumors = experiment: Protocol 162: CD20-PRIT and 1-step RIT efficacy and biodistribution; format: in vivo, SCID mice; conditions: multiple injections of 20 μCi (PRIT)
Protocol: The aim of this study was to show proof-of-concept of the treatment regimen developed for CEA-PRIT directed against an alternative target: cluster of differentiation 20 (CD20). The therapeutic efficacy was evaluated after 3 cycles of CD20-PRIT in mice bearing subcutaneous WSU-DLCL2 tumors. Comparisons were also made with: 1-step CD20-RIT, using BsAbs that were pre-incubated with ^212Pb-DOTAM before injection; with rituximab, a type I monoclonal antibody directed against CD20 and a reference in treatment of CD20+ diseases; and with GA101, a type II monoclonal antibody also directed against CD20.
Animals were treated according to the experimental schedule illustrated in FIG. 59. Solid WSU-DLCL2 xenografts were established in SCID mice aged 8 weeks on study day 0 by subcutaneous injection of 1.5×10^5 cells into the right flank. […]
Mice in groups H, I, and L were sacrificed and necropsied for biodistribution purposes 24 hours after their first and only injection of ^212Pb-DOTAM or ^212Pb-DOTAM-BsAb; groups J and K were sacrificed and necropsied 24 hours after their second and third ^212Pb-DOTAM injection, respectively. […] Collected samples were weighed and then measured for radioactivity using a 2470 WIZARD^2 automatic gamma counter (PerkinElmer), and the percent injected dose per gram of tissue (% ID/g) subsequently calculated, including corrections for decay and background. […]

s.c. BxPC3 tumors = experiment: Protocol 146: radiation dosimetry (absorbed doses, MIRD); format: in vivo, SCID mice; conditions: for Mean absorbed dose, RBE = 1 / Mean absorbed dose, RBE = 5: 20 μCi, pretargeted, tumor-bearing SCID
Protocol: Absorbed doses were calculated following the formalism outlined in Pamphlet No. 21 from the Medical Internal Radiation Dose (MIRD) Committee (Bolch W E, Eckerman K F, Sgouros G, and Thomas S R. J Nucl Med 2009; 50:477-484). Formally, the absorbed dose D(rT) in a target tissue or region rT is calculated as the time-integral of the activity A(rs,t) multiplied by the absorbed dose rate per unit activity S(rT←rs) summed over all source regions rs. Given that the vast majority of energy released by the ^212Pb decay chain comes from alpha radiation and furthermore by the much higher biological effectiveness of alpha radiation (as characterized by the relative biological effectiveness, RBE) two approximations were made: • 1. the energy is absorbed locally due to the short range of the alpha particles, which means that only the term s(rT←rT) is Considered, and • 2. the contribution from beta and gamma radiation is neglected.
With Δα being the energy released by alpha decays, or rather the sum of the mean energies released by alpha decays in the decay chain of ^212Pb, here expressed in units […], the absorbed dose in a target tissue or region rT is calculated by the formula: […]
The calculations are based on the composite (average) decay-corrected radioactive concentration at time t, expressed as [% ID^t/g]t. In a first step, these are transformed into radioactive concentrations as μCi per kg tissue weight for the target tissue rT:
AQ[μCi] is the injected activity and λ is the exponential decay rate for ^212Pb, 0.0651 h^−1 (corresponding to the 10.6-hour half-life).
In a second step, the radioactive concentration was integrated over time for each tissue. This was achieved using the “Linear Log Trapezoidal calculation method” in the pharmacokinetic software Phoenix WinNonlin 6.4 (Certara USA, Inc., 100 Overlook Center, Suite 101, Princeton, N.J. 08540 USA). The model type “Plasma” was used with uniform weighting.
In the final step, absorbed doses were calculated by multiplying the time integrals of the radioactive concentration by the energy release Δα=170·10^−6J/(μCi·h).
The mean absorbed doses in Gy calculated for protocol 146 are shown in Table 24, both as absolute values (RBE=1) and corrected for the higher cytotoxicity of alpha emitters (RBE=5).

Compound: NC(=O)CN1CCN(CC(N)=O)CCN(CC(N)=O)CCN(CC(N)=O)CC1.[212Pb+2] [^212Pb-DOTAM]
- tolerability (BW development) (s.c. WSU-DLCL2 tumors): well tolerated
- absorbed dose in most normal tissues, except bladder (s.c. BxPC3 tumors; 20 μCi ^212Pb-DOTAM, RBE=1): below 2 Gy
- Mean absorbed dose, RBE = 1 (s.c. BxPC3 tumors; Abdominal fat): 1.25 Gy
- Mean absorbed dose, RBE = 5 (s.c. BxPC3 tumors; Abdominal fat): 6.25 Gy
- Mean absorbed dose, RBE = 1 (s.c. BxPC3 tumors; Bladder): 6.53 Gy
- Mean absorbed dose, RBE = 5 (s.c. BxPC3 tumors; Bladder): 32.64 Gy
- Mean absorbed dose, RBE = 1 (s.c. BxPC3 tumors; Blood): 0.72 Gy
- Mean absorbed dose, RBE = 5 (s.c. BxPC3 tumors; Blood): 3.60 Gy
- Mean absorbed dose, RBE = 1 (s.c. BxPC3 tumors; Brain): 0.04 Gy
- Mean absorbed dose, RBE = 5 (s.c. BxPC3 tumors; Brain): 0.19 Gy
- Mean absorbed dose, RBE = 1 (s.c. BxPC3 tumors; Colon): 0.43 Gy
- Mean absorbed dose, RBE = 5 (s.c. BxPC3 tumors; Colon): 2.17 Gy
- Mean absorbed dose, RBE = 1 (s.c. BxPC3 tumors; Femoral bone): 0.27 Gy
- Mean absorbed dose, RBE = 5 (s.c. BxPC3 tumors; Femoral bone): 1.33 Gy
- Mean absorbed dose, RBE = 1 (s.c. BxPC3 tumors; Heart): 0.33 Gy
- Mean absorbed dose, RBE = 5 (s.c. BxPC3 tumors; Heart): 1.63 Gy
- Mean absorbed dose, RBE = 1 (s.c. BxPC3 tumors; Kidneys): 1.43 Gy
- Mean absorbed dose, RBE = 5 (s.c. BxPC3 tumors; Kidneys): 7.14 Gy
- Mean absorbed dose, RBE = 1 (s.c. BxPC3 tumors; Liver): 0.22 Gy
- Mean absorbed dose, RBE = 5 (s.c. BxPC3 tumors; Liver): 1.09 Gy
- Mean absorbed dose, RBE = 1 (s.c. BxPC3 tumors; Lung): 1.34 Gy
- Mean absorbed dose, RBE = 5 (s.c. BxPC3 tumors; Lung): 6.69 Gy
- Mean absorbed dose, RBE = 1 (s.c. BxPC3 tumors; Muscle): 0.29 Gy
- Mean absorbed dose, RBE = 5 (s.c. BxPC3 tumors; Muscle): 1.47 Gy
- Mean absorbed dose, RBE = 1 (s.c. BxPC3 tumors; Pancreas): 0.36 Gy
- Mean absorbed dose, RBE = 5 (s.c. BxPC3 tumors; Pancreas): 1.80 Gy
- Mean absorbed dose, RBE = 1 (s.c. BxPC3 tumors; Serum): 1.64 Gy
- Mean absorbed dose, RBE = 5 (s.c. BxPC3 tumors; Serum): 8.20 Gy
- Mean absorbed dose, RBE = 1 (s.c. BxPC3 tumors; Skin): 0.47 Gy
- Mean absorbed dose, RBE = 5 (s.c. BxPC3 tumors; Skin): 2.33 Gy
- Mean absorbed dose, RBE = 1 (s.c. BxPC3 tumors; Small intestine): 0.22 Gy
- Mean absorbed dose, RBE = 5 (s.c. BxPC3 tumors; Small intestine): 1.08 Gy
- Mean absorbed dose, RBE = 1 (s.c. BxPC3 tumors; Spleen): 0.27 Gy
- Mean absorbed dose, RBE = 5 (s.c. BxPC3 tumors; Spleen): 1.36 Gy
- Mean absorbed dose, RBE = 1 (s.c. BxPC3 tumors; Stomach): 0.24 Gy
- Mean absorbed dose, RBE = 5 (s.c. BxPC3 tumors; Stomach): 1.20 Gy
- Mean absorbed dose, RBE = 1 (s.c. BxPC3 tumors; Tail): 0.54 Gy
- Mean absorbed dose, RBE = 5 (s.c. BxPC3 tumors; Tail): 2.69 Gy
- Mean absorbed dose, RBE = 1 (s.c. BxPC3 tumors; Tumor (BxPC3)): 19.91 Gy
- Mean absorbed dose, RBE = 5 (s.c. BxPC3 tumors; Tumor (BxPC3)): 99.55 Gy
- Mean absorbed dose, RBE = 1 (s.c. BxPC3 tumors; Uterus): 0.61 Gy
- Mean absorbed dose, RBE = 5 (s.c. BxPC3 tumors; Uterus): 3.04 Gy

Reference: patent US20220031871A1, “ANTIBODIES FOR CHELATED RADIONUCLIDES AND CLEARING AGENTS” (Hoffmann-La Roche Inc., priority 2018, published 2022)
